For one compound, IC50 results are on record in US11208414B2, “Ectonucleotidase inhibitors and methods of use thereof” (Calithera Biosciences, Inc., priority 2016, dated 2021).

Where only a bound is given, the exact number is not on record here.

In the test the target is recombinant CD73 (Homo sapiens (Human), UniProt P21589). The experiment in a line: Inhibition of soluble recombinant CD73 enzyme activity (Malachite Green). Format: biochemical. To be noted: recombinant CD73 0.5 nM, AMP 50 μM, 30 minutes at room temperature. The protocol:
The concentration of inorganic phosphate was determined using a phosphate standard curve.

Sequence of recombinant CD73 (P21589 27-547): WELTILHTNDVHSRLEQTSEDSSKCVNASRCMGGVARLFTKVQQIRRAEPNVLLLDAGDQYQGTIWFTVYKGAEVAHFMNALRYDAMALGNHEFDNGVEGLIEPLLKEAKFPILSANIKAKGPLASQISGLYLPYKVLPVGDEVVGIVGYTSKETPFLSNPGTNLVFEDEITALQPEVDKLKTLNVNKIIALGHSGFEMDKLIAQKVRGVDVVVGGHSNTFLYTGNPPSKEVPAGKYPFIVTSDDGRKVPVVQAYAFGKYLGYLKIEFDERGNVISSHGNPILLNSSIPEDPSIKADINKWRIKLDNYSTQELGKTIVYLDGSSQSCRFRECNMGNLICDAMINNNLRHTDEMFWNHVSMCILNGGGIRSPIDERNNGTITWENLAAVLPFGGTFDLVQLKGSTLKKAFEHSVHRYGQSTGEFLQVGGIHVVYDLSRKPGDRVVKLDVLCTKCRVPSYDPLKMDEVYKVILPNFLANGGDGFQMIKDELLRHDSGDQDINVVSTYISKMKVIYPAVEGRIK

On to `Nc1ncnc2c1ncn2[C@@H]1O[C@H](COC(C(=O)O)C(=O)O)[C@@H](O)C1F` (stereo in doubt) [compound 9, 2-(((2R,3R,4R,5R)-5-(6-amino-9H-purin-9-yl)-4-fluoro-3-hydroxytetrahydrofuran-2-yl)-methoxy)malonic acid], for which the IC50 was more than 50 µM.

One may read the IC50 as the point on the concentration scale where inhibition reaches its midpoint.
